# Like-named read-outs stand apart in the source and are kept apart here.
# Columns and labels:
# P-gp expressing cells = details: P-gp reversal; cited from earlier work
# S1-M1-3.2 cells = details: for Per Cent Survival with 3.2 μM mitoxantrone / Per Cent Survival Alone / Difference Score: S1-M1-3.2 cells; for Per Cent Survival Alone: 3 days; for Difference Score: survival alone minus survival with 3.2 μM mitoxantrone
# How it was run: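 Cells grown in medium with 5% FBS received reversal agents at 0.1-80 μM (triplicate per dose), with or without the antitumor agent, plus reversal agent-only wells; survival by SRB assay. Difference Score = % survival with drug alone minus % survival with drug plus antitumor agent.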
# S1-B1-20 cells = test: Reversal of resistance in P-gp expressing cells, alone or with 21 μM bisantrene; assay type: cell-based, human; set-up: Difference Score: unit not given here; details: for Per Cent Survival with 21 μM bisantrene / Per Cent Survival Alone / Difference Score: S1-B1-20 cells; for Difference Score: survival alone minus survival with 21 μM bisantrene
# Method: To determine the specificity of FTC for non P-gp multidrug resistance, FTC was tested on S1-B1-20 cells which were selected for resistance to bisantrene and which express high levels of P-gp (Table 9)(Zhang, et al, Oncol. Res. 6291-301 (1994)). […] The 21 μM concentration of bisantrene is not inhibitory to the growth of the cells. Values shown are mean ± standard deviation from triplicate test wells.
structure (smiles),measurement,setting,value
"COc1ccc(C(C#N)(CCCCCN2CCc3cc(OC)c(OC)cc3C2)Sc2ccc(C)cc2)cc1OC (stereo not drawn) [α-(3,4-dimethoxyphenyl)-3,4-dihydro-6,7-dimethoxy-α-[(4-methylphenyl)thio]-2(1H)-isoquinolineheptanenitrile, reference compound]",potency relative to verapamil,P-gp expressing cells,at least 10 fold
same,Per Cent Survival with 3.2 μM mitoxantrone,S1-M1-3.2 cells; drug 0.1 μM,98 ± 2 Per Cent
same,Per Cent Survival Alone,S1-M1-3.2 cells; drug 0.1 μM alone,98 ± 2 Per Cent
same,Difference Score,S1-M1-3.2 cells; drug 0.1 μM,0
same,Per Cent Survival with 3.2 μM mitoxantrone,S1-M1-3.2 cells; drug 0.5 μM,98 ± 0 Per Cent
same,Per Cent Survival Alone,S1-M1-3.2 cells; drug 0.5 μM alone,100 ± 0 Per Cent
same,Difference Score,S1-M1-3.2 cells; drug 0.5 μM,2
same,Per Cent Survival with 3.2 μM mitoxantrone,S1-M1-3.2 cells; drug 1 μM,99 ± 2 Per Cent
same,Per Cent Survival Alone,S1-M1-3.2 cells; drug 1 μM alone,101 ± 1 Per Cent
same,Difference Score,S1-M1-3.2 cells; drug 1 μM,2
same,Per Cent Survival with 3.2 μM mitoxantrone,S1-M1-3.2 cells; drug 5 μM,63 ± 8 Per Cent
same,Per Cent Survival Alone,S1-M1-3.2 cells; drug 5 μM alone,78 ± 8 Per Cent
same,Difference Score,S1-M1-3.2 cells; drug 5 μM,15
same,Per Cent Survival with 3.2 μM mitoxantrone,S1-M1-3.2 cells; drug 10 μM,36 ± 11 Per Cent
same,Per Cent Survival Alone,S1-M1-3.2 cells; drug 10 μM alone,39 ± 18 Per Cent
same,Difference Score,S1-M1-3.2 cells; drug 10 μM,3
same,Per Cent Survival with 3.2 μM mitoxantrone,S1-M1-3.2 cells; drug 20 μM,21 ± 10 Per Cent
same,Per Cent Survival Alone,S1-M1-3.2 cells; drug 20 μM alone,21 ± 13 Per Cent
same,Difference Score,S1-M1-3.2 cells; drug 20 μM,0
same,Per Cent Survival with 3.2 μM mitoxantrone,S1-M1-3.2 cells; drug 40 μM,16 ± 4 Per Cent
same,Per Cent Survival Alone,S1-M1-3.2 cells; drug 40 μM alone,16 ± 5 Per Cent
same,Difference Score,S1-M1-3.2 cells; drug 40 μM,0
same,Per Cent Survival with 3.2 μM mitoxantrone,S1-M1-3.2 cells; drug 80 μM,13 ± 2 Per Cent
same,Per Cent Survival Alone,S1-M1-3.2 cells; drug 80 μM alone,13 ± 1 Per Cent
same,Difference Score,S1-M1-3.2 cells; drug 80 μM,0
same,reversal activity in S1-M1-3.2 cells (in words),S1-M1-3.2 cells; with mitoxantrone,not reversed
same,Per Cent Survival with 21 μM bisantrene,S1-B1-20 cells; drug 0.1 μM,92 ± 1 Per Cent
same,Per Cent Survival Alone,S1-B1-20 cells; drug 0.1 μM alone,99 ± 4 Per Cent
same,Difference Score,S1-B1-20 cells; drug 0.1 μM,7
same,Per Cent Survival with 21 μM bisantrene,S1-B1-20 cells; drug 0.5 μM,10 ± 0 Per Cent
same,Per Cent Survival Alone,S1-B1-20 cells; drug 0.5 μM alone,97 ± 1 Per Cent
same,Difference Score,S1-B1-20 cells; drug 0.5 μM,87
same,Per Cent Survival with 21 μM bisantrene,S1-B1-20 cells; drug 1 μM,4 ± 0 Per Cent
same,Per Cent Survival Alone,S1-B1-20 cells; drug 1 μM alone,94 ± 2 Per Cent
same,Difference Score,S1-B1-20 cells; drug 1 μM,90
same,Per Cent Survival with 21 μM bisantrene,S1-B1-20 cells; drug 5 μM,4 ± 0 Per Cent
same,Per Cent Survival Alone,S1-B1-20 cells; drug 5 μM alone,90 ± 1 Per Cent
same,Difference Score,S1-B1-20 cells; drug 5 μM,86
same,Per Cent Survival with 21 μM bisantrene,S1-B1-20 cells; drug 10 μM,4 ± 0 Per Cent
same,Per Cent Survival Alone,S1-B1-20 cells; drug 10 μM alone,50 ± 1 Per Cent
same,Difference Score,S1-B1-20 cells; drug 10 μM,46
same,Per Cent Survival with 21 μM bisantrene,S1-B1-20 cells; drug 20 μM,4 ± 0 Per Cent
same,Per Cent Survival Alone,S1-B1-20 cells; drug 20 μM alone,14 ± 1 Per Cent
same,Difference Score,S1-B1-20 cells; drug 20 μM,10
same,Per Cent Survival with 21 μM bisantrene,S1-B1-20 cells; drug 40 μM,4 ± 0 Per Cent
same,Per Cent Survival Alone,S1-B1-20 cells; drug 40 μM alone,4 ± 0 Per Cent
same,Difference Score,S1-B1-20 cells; drug 40 μM,0
same,Per Cent Survival with 21 μM bisantrene,S1-B1-20 cells; drug 80 μM,4 ± 0 Per Cent
same,Per Cent Survival Alone,S1-B1-20 cells; drug 80 μM alone,4 ± 0 Per Cent
same,Difference Score,S1-B1-20 cells; drug 80 μM,0
same,reversal of resistance in P-gp positive S1-B1-20 cells (in words),S1-B1-20 cells; bisantrene-selected,reversible
